Measurements taken from the supplement of paper PMC4862054.

Assays:
Conditions in all cases: incubation time: 72 h
MFM-223 = assay: normalised viability (% of control), CellTiter-Blue; higher = more viable cells (about 100 = DMSO control)
Method in brief: (§1)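 384-well plates were pre-loaded with compound in 5 µl medium before 20 µl of breast cancer cell suspension was seeded. Following 72 h incubation, 2.5 µl CellTiter-Blue reagent was added for 2 h at 37 °C. Fluorescence was read at 560/590 nm and plates were normalised to vehicle (100) and a positive kill control (0), checked by Z'-factor. Normalised viability is reported at a single listed concentration of the series.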

SK-BR-3 = assay: as above
Method in brief: as §1

CAL-51 = assay: as above
Method in brief: as §1

HDQ-P1 = assay: as above
Method in brief: as §1

MDA-MB-436 [1] = assay: as above
Method in brief: as §1

DU-4475 = assay: as above
Method in brief: as §1

BT-549 = assay: as above
Method in brief: as §1

MDA-MB-231 = assay: as above
Method in brief: as §1

CAL-148 [2] = assay: as above
Method in brief: as §1

HCC1599 = assay: as above
Method in brief: as §1

BT-474 = assay: as above
Method in brief: as §1

HCC1937 = assay: as above
Method in brief: as §1

MDA-MB-468 = assay: as above
Method in brief: as §1

Hs578T = assay: as above
Method in brief: as §1

MDA-MB-453 = assay: as above
Method in brief: as §1

HCC1143 = assay: as above
Method in brief: as §1

CAL-85-1 = assay: as above
Method in brief: as §1

CAL-120 = assay: as above
Method in brief: as §1

MDA-MB-436 [3] = assay: drug sensitivity score (DSS), CellTiter-Glo (DSS (AUC-based score)); higher = stronger drug effect (viability inhibition or cytotoxicity); extreme values may be limits of the assay
Method in brief: (§2)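 Breast cancer cells were seeded into 384-well plates containing compound at 5 concentrations in 10-fold steps over a compound-specific 10,000-fold range and incubated 72 h. After CellTox Green and CellTiter-Glo readings, each plate was normalised to 0.1 % DMSO and a positive kill control. The drug sensitivity score rests on the area under the fitted dose-response curve.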

CAL-148 [4] = assay: as above
Method in brief: as §2

NC(=O)c1cccc2cn(-c3ccc([C@@H]4CCCNC4)cc3)nc12 [MK-4827]
normalised viability [%]
Conditions | 3 nM | 10 nM | 30 nM | 100 nM | 1000 nM | 10000 nM
BT-474 | – | 119 | – | – | 100 | 92.7
BT-549 | – | 79.1 | – | – | 93.3 | 72.4
CAL-51 | 112 | – | 105 | 104 | – | –
CAL-85-1 | 95.8 | – | 92 | 93.1 | – | –
CAL-120 | – | 81 | – | – | 76.9 | 71.1
CAL-148 [2] | 97.7 | – | 98.2 | 95.8 | – | –
DU-4475 | 94.8 | – | 81.1 | 85.5 | – | –
HCC1143 | – | 88.9 | – | – | 85 | 64.6
HCC1599 | – | 93.4 | – | – | 116 | 93.3
HCC1937 | – | 55.2 | – | – | 70.5 | 38.3
HDQ-P1 | 95.3 | – | 94.1 | 95.6 | – | –
Hs578T | – | 96.2 | – | – | 93.7 | 80.7
MDA-MB-231 | – | 94 | – | – | 90.7 | 62.2
MDA-MB-436 [1] | – | 84.2 | – | – | 72.4 | 65.3
MDA-MB-453 | 116 | – | 90.8 | 93.3 | – | –
MDA-MB-468 | – | 101 | – | – | 89 | 50.4
MFM-223 | – | 92.4 | – | – | 96.4 | 111
SK-BR-3 | – | 95.9 | – | – | 95.2 | 74.9

Conditions | drug sensitivity score
CAL-148 [4] | 0.954
MDA-MB-436 [3] | 3.73

N[C@@H](Cc1ccc(N(CCCl)CCCl)cc1)C(=O)O [Melphalan]
normalised viability [%]
Conditions | 0.297 nM | 0.99 nM | 2.97 nM | 9.9 nM | 99 nM | 990 nM
BT-474 | – | 99.9 | – | – | 98 | 99.1
BT-549 | – | 92.7 | – | – | 115 | 89.3
CAL-51 | 105 | – | 102 | 107 | – | –
CAL-85-1 | 94.8 | – | 91.2 | 96.6 | – | –
CAL-120 | – | 74.3 | – | – | 71.6 | 64.3
CAL-148 [2] | 92.6 | – | 94.5 | 91.4 | – | –
DU-4475 | 101 | – | 84.1 | 92.8 | – | –
HCC1143 | – | 67.8 | – | – | 70.3 | 67.8
HCC1599 | – | 102 | – | – | 82.1 | 90.7
HCC1937 | – | 89 | – | – | 64.2 | 39.5
HDQ-P1 | 117 | – | 94 | 91.2 | – | –
Hs578T | – | 98.4 | – | – | 82 | 73
MDA-MB-231 | – | 91.1 | – | – | 97.7 | 91.5
MDA-MB-436 [1] | – | 88.2 | – | – | 90 | 75.4
MDA-MB-453 | 105 | – | 101 | 102 | – | –
MDA-MB-468 | – | 95.7 | – | – | 99.7 | 63
MFM-223 | – | 90 | – | – | 84.7 | 99.3
SK-BR-3 | – | 94.6 | – | – | 98.8 | 50.6

Conditions | drug sensitivity score
CAL-148 [4] | 19.5
MDA-MB-436 [3] | 16.6
